The values that follow come from patent US20080318954A1, “Compounds” (Cyclacel Limited, priority 2004, published 2008).

The target in one assay is T1, CDK2/cyclin A (Homo sapiens, UniProt P24941).
T1 construct: His6 (N); made in house; host or cells: Sf9 insect cells (baculovirus)
Put plainly: CDK/cyclin kinase assay, CDK2/cyclin A. It is filed as biochemical. As for the experimental part:
(§1) CDK4/cyclin D1, CDK1/cyclin B, CDK2/cyclin E, CDK2/cyclin A, CDK9/cyclin T1 and CDK7/cyclin H, all with a His6 tag on the N-terminus, were expressed in Sf9 insect cells using an appropriate baculovirus construct. Sf9 culture (1.6×10^6 cells/mL) was infected (MOI of 3) for two days. The cells were harvested by low speed centrifugation and the protein was purified from the insect cell pellet by metal affinity chromatography. In short: the insect cell pellet was lysed in Buffer A (10 mM Tris-HCl pH 8.0, 150 mM NaCl, 0.02% NP-40, 5 mM β-mercaptoethanol, 20 mM NaF, 1 mM Na3VO4, and Sigma Protease Inhibitor Cocktail) by sonication. The soluble fraction was cleared by centrifugation and loaded onto Ni-NTA-Agarose (Qiagen). Non-bound protein was washed off with 300 mM NaCl, 5-15 mM imidazole in buffer A and the bound protein was eluted with buffer A supplemented with 250 mM imidazole. The purified proteins were extensively dialyzed against storage buffer (20 mM HEPES pH 7.4, 50 mM NaCl, 2 mM DTT, 1 mM EDTA, 1 mM EGTA, 0.02% NP-40, 10% v/v glycerol) and stored at −70° C.
Compounds were investigated for their CDK2/cyclin E, CDK2/cyclin A, CDK1/cyclin B, and CDK4/cyclin D1 inhibitory activity. His6-tagged recombinant human cyclin-dependent kinases CDK1/cyclin B1, CDK2/cyclin E, CDK2/cyclin A, and CDK4 were expressed in sf9 insect cells using a baculovirus expression system. Recombinant cyclin D1 was expressed in E. coli. Proteins were purified by metal chelate affinity chromatography to greater than 90% homogeneity. Kinase assays were performed in 96-well plates using recombinant CDK/cyclins. Assays were performed in assay buffer (25 mM β-glycerophosphate, 20 mM MOPS, 5 mM EGTA, 1 mM DTT, 1 mM […], pH 7.4), into which were added 2-4 μg of active enzyme with appropriate substrates (purified histone H1 for CDK1 and CDK2, recombinant GST-retinoblastoma protein (residues 773-928) for CDK4). The reaction was initiated by addition of Mg/ATP mix (15 mM MgCl2+100 μM ATP with 30-50 kBq per well of [γ-^32P]-ATP) and mixtures incubated for 10-45 min, as required, at 30° C. Reactions were stopped on ice, followed by filtration through p81 or GF/C filterplates (for CDK4) (Whatman Polyfiltronics, Kent, UK). After washing 3 times with 75 mM aq orthophosphoric acid, plates were dried, scintillant added and incorporated radioactivity measured in a scintillation counter (TopCount, Packard Instruments, Pangbourne, Berks, UK). Compounds for kinase assays were made up as 10 mM stocks in DMSO and diluted into 10% DMSO in assay buffer. Data was analysed using curve-fitting software (GraphPad Prism version 3.00 for Windows, GraphPad Software, San Diego Calif. USA) to determine IC50 values (concentration of test compound which inhibits kinase activity by 50%).

In the next assay the test system is Lck. The experiment in a line: Protein kinase panel selectivity screen, Lck. The assay is classed as biochemical. To be noted: 1 μM compound; [ATP] 50 μM. As for the experimental part:
(§2) The names of the 29 kinases comprising the selectivity screen, as well as the ATP concentrations used in each kinase case, are given in Table 5. The kinase assays were carried out as described previously.
(§3) Compound XIV at a concentration of 1 μM was screened in the 29-kinase panel (Dundee University) and the results are shown bellow in Table 6.

The target in the next assay is T2, PKCa (Homo sapiens, UniProt P17252).
T2 construct: Dundee University (panel)
Put plainly: Protein kinase panel selectivity screen, PKCa. The assay is classed as biochemical. To be noted: 1 μM compound; [ATP] 20 μM. The procedure:
as §2, §3

Another assay has as its target T3, JNK/SAPK1c (Homo sapiens, UniProt P45983).
T3 construct: Dundee University (panel)
The experiment in a line: Protein kinase panel selectivity screen, JNK/SAPK1c. It is filed as biochemical. To be noted: 1 μM compound. As for the experimental part: as §2, §3

Another assay deals with T4, SAPK2a/p38 (Homo sapiens, UniProt Q16539).
T4 construct: Dundee University (panel)
Put plainly: Protein kinase panel selectivity screen, SAPK2a/p38. It is filed as biochemical. To be noted: 1 μM compound; [ATP] 50 μM. The procedure: as §2, §3

The target in a further assay is T5, MAPKAP-K1a (Homo sapiens, UniProt Q15418).
T5 construct: Dundee University (panel)
The experiment in a line: Protein kinase panel selectivity screen, MAPKAP-K1a. The following applies: 1 μM compound; [ATP] 50 μM. The assay is classed as biochemical. The procedure:
as §2, §3

The target of another assay is T6, SAPK3/p38g (Homo sapiens, UniProt P53778).
T6 construct: Dundee University (panel)
Put plainly: Protein kinase panel selectivity screen, SAPK3/p38g. It is filed as biochemical. To be noted: 1 μM compound; [ATP] 5 μM. As for the experimental part:
as §2, §3

Another assay has as its target T7, PDK1 (Homo sapiens, UniProt O15530).
T7 construct: Dundee University (panel)
The experiment in a line: Protein kinase panel selectivity screen, PDK1. The following applies: 1 μM compound; [ATP] 20 μM. It is filed as biochemical. As for the experimental part: as §2, §3

In a further assay the target is T8, MSK1 (Homo sapiens, UniProt O75582).
T8 construct: Dundee University (panel)
The experiment in a line: Protein kinase panel selectivity screen, MSK1. It is filed as biochemical. The following applies: 1 μM compound; [ATP] 20 μM. The procedure: as §2, §3

Assay [1] has as its system β-catenin in HEK293 cells. Put plainly: β-catenin accumulation and phosphorylation in HEK293 cells. The assay is classed as cell-based, human. To be noted: up to 5 μM. The source says:
One of the possible toxicities related to GSK3 inhibition is the accumulation of β-catenin, which has been implicated in the development of colon cancer and melanoma. The effect of example compound XIV on the endogenous levels of β-catenin in HEK293 cells was studied at concentrations that are effective in activation of cellular glycogen synthase.

Another assay has as its target T9, SGK (Homo sapiens, UniProt O00141).
T9 construct: Dundee University (panel)
Put plainly: Protein kinase panel selectivity screen, SGK. To be noted: 1 μM compound; [ATP] 20 μM. It is filed as biochemical. As for the experimental part: as §2, §3

The target in another assay is T10, GSK3b (Homo sapiens, UniProt P49841).
T10 construct: Dundee University (panel)
Put plainly: Protein kinase panel selectivity screen, GSK3b. It is filed as biochemical. To be noted: 1 μM compound. As for the experimental part: as §2, §3

The target of the next assay is T11, CDK9/cyclin T1 (Homo sapiens, UniProt P50750).
T11 construct: His6 (N); made in house; host or cells: Sf9 insect cells (baculovirus)
Put plainly: CDK9/cyclin T1 inhibition constant. It is filed as biochemical. As for the experimental part:
as §1
Intrinsic inhibition constants (Ki) for example compound XIV against a number of Ser/Thr kinases were determined and are summarized in Table 3.

The next assay has as its target T12, PRAK (Homo sapiens, UniProt Q8IW41).
T12 construct: Dundee University (panel)
Put plainly: Protein kinase panel selectivity screen, PRAK. The assay is classed as biochemical. To be noted: 1 μM compound; [ATP] 20 μM. As for the experimental part: as §2, §3

For another assay, the system named is AMPK. The experiment in a line: Protein kinase panel selectivity screen, AMPK. It is filed as biochemical. The following applies: 1 μM compound; [ATP] 50 μM. As for the experimental part:
as §2, §3

A further assay deals with T13, DYRK1a (Homo sapiens, UniProt Q13627).
T13 construct: Dundee University (screening panel)
The experiment in a line: Protein kinase panel selectivity screen, DYRK1a. It is filed as biochemical. To be noted: 1 μM compound; [ATP] 50 μM. As for the experimental part:
as §2, §3

Molecules are shown by their SMILES. Entries after “also recorded” stand apart in the source; their conditions may differ.

T11 sequence (P50750 whole entry, species assumed): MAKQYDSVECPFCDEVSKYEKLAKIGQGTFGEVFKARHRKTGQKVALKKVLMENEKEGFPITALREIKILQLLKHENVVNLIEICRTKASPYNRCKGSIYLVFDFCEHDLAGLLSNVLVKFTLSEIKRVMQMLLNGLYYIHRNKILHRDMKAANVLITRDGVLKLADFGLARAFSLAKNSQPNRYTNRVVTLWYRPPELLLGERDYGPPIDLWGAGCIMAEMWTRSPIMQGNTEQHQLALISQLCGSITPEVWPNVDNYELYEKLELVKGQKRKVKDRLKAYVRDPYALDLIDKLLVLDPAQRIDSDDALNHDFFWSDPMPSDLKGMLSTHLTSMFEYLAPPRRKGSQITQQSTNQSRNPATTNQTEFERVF
T11 sequence (O60563 whole entry partner, species assumed): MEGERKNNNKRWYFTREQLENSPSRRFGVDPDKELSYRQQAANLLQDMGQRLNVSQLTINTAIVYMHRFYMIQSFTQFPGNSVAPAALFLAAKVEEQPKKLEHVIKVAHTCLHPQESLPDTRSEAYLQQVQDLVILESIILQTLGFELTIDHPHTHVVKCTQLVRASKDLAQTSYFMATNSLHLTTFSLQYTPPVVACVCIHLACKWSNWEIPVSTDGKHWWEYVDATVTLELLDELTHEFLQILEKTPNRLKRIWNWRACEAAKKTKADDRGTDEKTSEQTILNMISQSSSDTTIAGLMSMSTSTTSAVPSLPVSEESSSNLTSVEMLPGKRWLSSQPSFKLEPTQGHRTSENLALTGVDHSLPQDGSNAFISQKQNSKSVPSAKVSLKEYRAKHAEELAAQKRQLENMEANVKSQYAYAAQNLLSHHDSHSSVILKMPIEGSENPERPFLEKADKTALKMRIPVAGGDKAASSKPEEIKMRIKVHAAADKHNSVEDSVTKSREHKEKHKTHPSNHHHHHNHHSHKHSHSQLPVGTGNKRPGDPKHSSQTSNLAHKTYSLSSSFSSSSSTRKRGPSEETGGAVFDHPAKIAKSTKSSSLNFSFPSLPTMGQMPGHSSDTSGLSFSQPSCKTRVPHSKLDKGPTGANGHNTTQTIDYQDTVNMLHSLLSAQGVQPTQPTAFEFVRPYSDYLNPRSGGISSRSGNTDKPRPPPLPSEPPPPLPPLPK
T3 sequence (P45983 whole entry): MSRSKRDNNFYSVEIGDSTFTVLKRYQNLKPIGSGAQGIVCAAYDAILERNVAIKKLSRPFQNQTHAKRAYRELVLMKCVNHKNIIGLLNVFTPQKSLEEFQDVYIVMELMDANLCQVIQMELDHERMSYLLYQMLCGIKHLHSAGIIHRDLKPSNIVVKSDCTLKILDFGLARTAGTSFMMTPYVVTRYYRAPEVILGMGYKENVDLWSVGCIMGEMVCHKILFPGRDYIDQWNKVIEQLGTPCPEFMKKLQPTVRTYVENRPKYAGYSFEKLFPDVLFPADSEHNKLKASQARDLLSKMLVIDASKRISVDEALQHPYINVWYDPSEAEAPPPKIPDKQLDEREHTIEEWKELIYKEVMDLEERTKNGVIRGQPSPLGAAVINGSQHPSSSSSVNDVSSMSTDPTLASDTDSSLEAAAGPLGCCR
T10 sequence (P49841 whole entry, species assumed): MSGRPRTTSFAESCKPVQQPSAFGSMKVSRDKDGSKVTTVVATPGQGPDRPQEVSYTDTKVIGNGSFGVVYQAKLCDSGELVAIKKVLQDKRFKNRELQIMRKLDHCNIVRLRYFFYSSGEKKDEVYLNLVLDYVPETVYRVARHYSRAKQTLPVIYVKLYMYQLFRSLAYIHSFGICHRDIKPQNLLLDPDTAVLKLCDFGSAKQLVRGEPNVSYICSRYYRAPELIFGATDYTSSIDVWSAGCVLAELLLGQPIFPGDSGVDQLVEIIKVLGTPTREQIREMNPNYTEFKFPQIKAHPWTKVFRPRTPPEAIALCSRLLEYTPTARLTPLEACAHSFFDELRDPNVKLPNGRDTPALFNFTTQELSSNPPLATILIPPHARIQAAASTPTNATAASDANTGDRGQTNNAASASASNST
T5 sequence (Q15418 whole entry, species assumed): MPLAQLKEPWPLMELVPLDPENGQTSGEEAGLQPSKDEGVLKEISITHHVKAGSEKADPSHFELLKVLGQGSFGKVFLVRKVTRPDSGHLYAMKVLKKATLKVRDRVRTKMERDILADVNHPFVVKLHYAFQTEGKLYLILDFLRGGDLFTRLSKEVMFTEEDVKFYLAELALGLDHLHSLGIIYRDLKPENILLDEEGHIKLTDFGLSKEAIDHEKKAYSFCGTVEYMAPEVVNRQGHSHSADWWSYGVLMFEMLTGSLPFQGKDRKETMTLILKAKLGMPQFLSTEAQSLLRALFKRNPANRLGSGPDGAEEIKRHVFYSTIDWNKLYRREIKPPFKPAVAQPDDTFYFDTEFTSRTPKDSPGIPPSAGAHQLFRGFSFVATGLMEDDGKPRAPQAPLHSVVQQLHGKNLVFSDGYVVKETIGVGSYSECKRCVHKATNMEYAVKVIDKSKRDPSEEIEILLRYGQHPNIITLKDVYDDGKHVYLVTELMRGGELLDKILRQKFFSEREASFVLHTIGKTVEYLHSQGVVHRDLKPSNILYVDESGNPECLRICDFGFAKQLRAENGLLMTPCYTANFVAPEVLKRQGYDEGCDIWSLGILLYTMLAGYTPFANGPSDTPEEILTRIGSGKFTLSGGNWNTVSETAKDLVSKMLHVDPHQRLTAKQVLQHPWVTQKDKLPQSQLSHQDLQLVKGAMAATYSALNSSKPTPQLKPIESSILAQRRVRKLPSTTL
T6 sequence (P53778 whole entry): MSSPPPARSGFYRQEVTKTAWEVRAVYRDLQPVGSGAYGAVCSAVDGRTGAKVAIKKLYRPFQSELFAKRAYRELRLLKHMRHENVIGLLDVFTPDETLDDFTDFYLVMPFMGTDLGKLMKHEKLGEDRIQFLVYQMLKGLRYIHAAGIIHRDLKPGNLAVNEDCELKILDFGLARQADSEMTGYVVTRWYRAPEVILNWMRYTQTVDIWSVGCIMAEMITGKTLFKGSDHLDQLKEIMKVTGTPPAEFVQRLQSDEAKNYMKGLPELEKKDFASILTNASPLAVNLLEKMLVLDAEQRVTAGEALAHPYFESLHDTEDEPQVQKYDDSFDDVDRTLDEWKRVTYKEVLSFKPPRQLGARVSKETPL
T7 sequence (O15530 whole entry): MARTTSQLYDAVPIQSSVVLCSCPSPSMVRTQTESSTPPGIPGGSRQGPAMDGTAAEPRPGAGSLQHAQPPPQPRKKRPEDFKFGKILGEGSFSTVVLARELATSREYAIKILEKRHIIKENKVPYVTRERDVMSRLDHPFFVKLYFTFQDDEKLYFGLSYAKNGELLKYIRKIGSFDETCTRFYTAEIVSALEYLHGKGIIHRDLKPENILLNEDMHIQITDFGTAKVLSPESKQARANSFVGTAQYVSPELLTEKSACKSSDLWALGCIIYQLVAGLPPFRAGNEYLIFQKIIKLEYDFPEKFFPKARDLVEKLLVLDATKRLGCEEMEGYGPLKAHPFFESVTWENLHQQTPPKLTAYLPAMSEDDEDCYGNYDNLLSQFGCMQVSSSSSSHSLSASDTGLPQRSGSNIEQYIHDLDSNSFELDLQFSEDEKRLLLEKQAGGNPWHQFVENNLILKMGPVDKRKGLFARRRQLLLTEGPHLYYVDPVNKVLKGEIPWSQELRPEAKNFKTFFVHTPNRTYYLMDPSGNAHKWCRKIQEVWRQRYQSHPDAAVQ
T9 sequence (O00141 whole entry, species assumed): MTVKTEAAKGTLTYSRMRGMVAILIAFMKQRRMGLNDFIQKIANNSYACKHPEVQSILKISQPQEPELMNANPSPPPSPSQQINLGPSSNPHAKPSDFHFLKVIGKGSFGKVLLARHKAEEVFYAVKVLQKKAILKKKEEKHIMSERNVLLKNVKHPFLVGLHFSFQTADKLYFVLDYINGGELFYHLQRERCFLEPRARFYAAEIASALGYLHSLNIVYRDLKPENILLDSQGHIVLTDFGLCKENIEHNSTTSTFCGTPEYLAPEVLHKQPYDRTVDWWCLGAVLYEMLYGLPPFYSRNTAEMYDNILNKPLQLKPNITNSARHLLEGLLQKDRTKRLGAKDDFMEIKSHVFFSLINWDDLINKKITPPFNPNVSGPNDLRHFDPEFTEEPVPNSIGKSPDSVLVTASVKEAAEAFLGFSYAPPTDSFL
T8 sequence (O75582 whole entry, species assumed): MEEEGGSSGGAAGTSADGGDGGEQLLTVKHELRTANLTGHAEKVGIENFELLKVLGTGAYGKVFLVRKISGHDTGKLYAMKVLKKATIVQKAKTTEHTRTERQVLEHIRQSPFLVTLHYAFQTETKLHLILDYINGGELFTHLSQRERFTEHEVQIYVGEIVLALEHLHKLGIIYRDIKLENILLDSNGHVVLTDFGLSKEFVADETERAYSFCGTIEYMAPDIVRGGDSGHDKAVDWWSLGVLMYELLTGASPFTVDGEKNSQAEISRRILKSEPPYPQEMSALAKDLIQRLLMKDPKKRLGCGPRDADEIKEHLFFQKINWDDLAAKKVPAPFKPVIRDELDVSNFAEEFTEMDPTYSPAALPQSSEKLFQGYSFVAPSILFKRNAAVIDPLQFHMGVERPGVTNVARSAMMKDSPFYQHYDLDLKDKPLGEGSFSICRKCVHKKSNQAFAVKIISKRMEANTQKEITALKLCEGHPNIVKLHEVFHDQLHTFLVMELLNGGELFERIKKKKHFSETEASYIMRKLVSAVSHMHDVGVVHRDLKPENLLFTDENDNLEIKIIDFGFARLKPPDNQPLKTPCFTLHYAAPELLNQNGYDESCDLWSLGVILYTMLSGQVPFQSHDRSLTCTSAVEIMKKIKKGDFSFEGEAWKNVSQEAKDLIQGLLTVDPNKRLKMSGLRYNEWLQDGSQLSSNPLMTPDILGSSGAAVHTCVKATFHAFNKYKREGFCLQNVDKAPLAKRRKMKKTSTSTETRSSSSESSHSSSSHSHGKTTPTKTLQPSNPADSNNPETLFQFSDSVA

Usually Ki stands for a dissociation constant, usually derived from enzyme kinetics or from competition with a known ligand. A high value points to a looser hold on the target. The inhibition is the change of the read-out against control, counted positive when it falls. The low end stands for little suppression, the high end for strong suppression. For `Clc1ccc(Nc2nccc(-c3nccs3)n2)cn1` [Compound XIV, (6-Chloro-pyridin-3-yl)-(4-thiazol-2-yl-pyrimidin-2-yl)-amine], the figures for the Ki on CDK2/cyclin A and at CDK9/cyclin T1 were greater than 50 µM and 500 nM, respectively. Besides, the “Fold selectivity for GSK3 over CDK2/cyclin A” value at CDK2/cyclin A (from Ki) is >3,125 fold. Further, the IC50 on CDK2/cyclin A (read-out: Kinase inhibition IC50 CDK2/A) is greater than 50 µM. Further, the “% Activity Lck” value with Lck was 66 ± 5%. The activity at 1 µM at PKCa is 76%; at JNK/SAPK1c ([ATP] 20 μM) it was 56 ± 4%; on SAPK2a/p38 it was 84 ± 7%; on MAPKAP-K1a, 60 ± 1%; on SAPK3/p38g, 88 ± 3%; on PDK1, 85 ± 5%. Further, the activity at 1 µM on MSK1 amounted to 90 ± 6%; on SGK, 79 ± 4%; on GSK3b ([ATP] 5 μM), 13 ± 5%; on PRAK it was 83 ± 3%; at DYRK1a, 74 ± 8%. The same compound showed an inhibition at 1 µM against JNK/SAPK1c of roughly 40%. Further, the “Levels of cellular β-catenin” value in assay [1] was “lack of β-catenin accumulation; also recorded: did not change significantly”. For the same compound, the “Phosphorylation of β-catenin at the GSK3-specific sites S33,37/T41” value in [1] is listed as “did not inhibit the phosphorylation”. On GSK3b, the “Selectivity in the 29-kinase panel” value is “highly selective for GSK3”. Further, the “Fold selectivity for GSK3 over CDK9/cyclin T1” value at CDK9/cyclin T1 (from Ki) was determined as 31 fold. Also, in the assay with AMPK, the “% Activity AMPK” value was 82 ± 5%.
